Experimental data reported in ChEMBL document CHEMBL4715749, “Synthesis of 17β-N-arylcarbamoylandrost-4-en-3-one derivatives and their anti-proliferative effect on human androgen-sensitive LNCaP cell line” (Eur J Med Chem, 2016).
Active and inactive are the calls of the source. The calls are words filed in the database; no cut-off is given here.

Tests used:
PC-3 = assay: Growth inhibition of androgen-insensitive human PC3 cells incubated for 48 hrs by sulforhodamine B assay; type: functional
LNCaP [1] = assay: Growth inhibition of androgen-sensitive human LNCAP cells incubated for 48 hrs by sulforhodamine B assay; type: functional
LNCaP [2] = assay: Antiproliferative activity against androgen-sensitive human LNCAP cells assessed as inhibition of DHT-induced cell growth at 50 uM incubated for 48 hrs by sulforhodamine B assay relative to control; type: functional
LNCaP [3] = assay: Antiproliferative activity against androgen-sensitive human LNCAP cells assessed as inhibition of testosterone-induced cell growth at 50 uM incubated for 48 hrs by sulforhodamine B assay relative to control; type: functional
LNCaP [4] = assay: Antiproliferative activity against androgen-sensitive human LNCAP cells assessed as inhibition of cell growth at 50 uM incubated for 48 hrs by sulforhodamine B assay relative to control; type: functional
[5] = Cytotoxicity against Wistar rat PBMC assessed as inhibition of cell growth at 50 uM incubated for 24 hrs by sulforhodamine B assay relative to control; type: tissue-based; conditions: for Activity: pbmc, 24 h, 50 µM; for inhibition at 24 h, 50 µM: Wistar, peripheral blood mononuclear cells (PBMC)

Row | SMILES | GI50 (PC-3) | GI50 (LNCaP [1]) | inhibition at 50 µM (LNCaP [2]) | inhibition at 50 µM (LNCaP [3]) | inhibition at 50 µM (LNCaP [4]) | Activity [5] | inhibition at 24 h, 50 µM [5] | inhibition (LNCaP [2])
1 | CC(=O)N1CCN(c2ccc(OCC3COC(Cn4ccnc4)(c4ccc(Cl)cc4Cl)O3)cc2)CC1 (centres undefined) [KETOCONAZOLE] | 11.7 µM | 25 µM | 68.2% | 76% | 82.7% |  |  | 
2 | C[C@]12CC[C@H]3[C@@H](CCC4=CC(=O)CC[C@@]43C)[C@@H]1CC[C@@H]2C(=O)Nc1ccc(Cl)cc1 |  |  | 13.4% | 1.6% | -6.1% | Non-Toxic |  | 
3 | C[C@]12CC[C@H]3[C@@H](CCC4=CC(=O)CC[C@@]43C)[C@@H]1CC[C@@H]2C(=O)Nc1ccc(F)cc1 |  |  | 29% | 44.3% | 29.1% |  | 4.1% | 
4 | C[C@]12CC[C@H]3[C@@H](CCC4=CC(=O)CC[C@@]43C)[C@@H]1CC[C@@H]2C(=O)Nc1ccccc1 |  |  | 59.4% | 66.2% | 40.9% |  | 8.7% | 
5 | CC(C)C(=O)Nc1ccc([N+](=O)[O-])c(C(F)(F)F)c1 [FLUTAMIDE] |  |  | 25.1% | 29.6% | -3.4% | Non-Toxic |  | 
6 | C[C@]12CC[C@H]3[C@@H](CCC4=CC(=O)CC[C@@]43C)[C@@H]1CC[C@@H]2C(=O)N1CCc2ccccc21 |  |  | 52.6% | 49.9% | 69.1% | Non-Toxic |  | 
7 | Cc1ccc(NC(=O)[C@H]2CC[C@H]3[C@@H]4CCC5=CC(=O)CC[C@]5(C)[C@H]4CC[C@]23C)cc1 |  |  | 27.5% | 43.3% | 25.6% |  | 13% | 
8 | C[C@]12CC[C@H]3[C@@H](CCC4=CC(=O)CC[C@@]43C)[C@@H]1CC[C@@H]2C(=O)Nc1cc(C(F)(F)F)cc(C(F)(F)F)c1 | 14.2 µM | 12.8 µM | 100% | 100% | 100% |  | 9.1% | 
9 | CC(C)(C)NC(=O)[C@H]1CC[C@H]2[C@@H]3CC[C@H]4NC(=O)C=C[C@]4(C)[C@H]3CC[C@]12C [FINASTERIDE] |  |  |  | 21.1% | 34.6% |  | 3.7% | inactive
10 | C[C@]12CC[C@H]3[C@@H](CCC4=CC(=O)CC[C@@]43C)[C@@H]1CC[C@@H]2C(=O)Nc1nccs1 | 6.6 µM | 16 µM | 100% | 100% | 100% |  | 16.8% | 
11 | COc1ccc(NC(=O)[C@H]2CC[C@H]3[C@@H]4CCC5=CC(=O)CC[C@]5(C)[C@H]4CC[C@]23C)cc1 |  |  | 29.7% | 38.6% | 48.7% |  | 7.9% | 
